Residues, ends and D or L forms follow the SMILES beside them. *: point of attachment. Cbz = O=C(OCc1ccccc1)*; CH2F = FC*
Experiments:
[1] = system: DU145; test: Stimulation of macropinocytosis (dextran uptake); format: cell-based; conditions: 10 μM for 24, 48, or 72 h, flow cytometry
Experimental: (Panel A) DU145 cells were treated with 10 μM tAS1411 or 10 μM tCRO or no oligonucleotide in complete DMEM medium at 37° C. for the time indicated. After treatment, cell medium was changed for fresh complete medium containing 0.2 mg/ml dextran-10K labeled with Alexa Fluor 488, and cells were incubated for 30 min at 37° C. After incubation, cells were harvested and analyzed by flow cytometry to determine dextran uptake. (Panel B) The same experiment was performed using Hs27 cells. (Panel C) DU145 cells were treated with 10 μM tAS1411 or 10 μM tCRO or no oligonucleotide in complete DMEM medium at 37° C. for 48 h. After treatment, cell medium was changed for fresh complete medium containing 0.2 mg/ml dextran-10K tagged with Alexa Fluor 488, and cells were incubated for 30 min at 37° C. Then, cells were washed with cold PBS, added PBS containing 5 μg/ml PI and incubated on ice for 5 min. After washing with cold PBS, cells were fixed and the distribution of macropinocytic marker was visualized by confocal microscopy. The nucleus was stained with DAPI (blue). Scale bars, 10 μm. All experiments have been repeated at least three times. Data are mean of three independent samples; bars, SE; *(p<0.05).
FIG. 6 are graphs showing that nucleolin regulates AS1411-induced stimulation of macropinocytosis. DU145 cells were untreated (no transfection) or transfected, without siRNA (mock), or with 30 nM of one of three different nucleolin siRNAs (NCL1, NCL2, NCL3) or a control siRNA (scramble). 48 h after transfection, cells were incubated with 10 μM tAS1411, 10 μM tCRO, or no oligonucleotide in complete DMEM medium at 37° C. for 24 h. (Panel A) After treatment, cell medium was changed for fresh complete medium containing 0.2 mg/ml dextran-10K labeled with Alexa Fluor 488 (green) and incubated for 30 min at 37° C. (Panel B) After treatment, some cells were washed, fresh complete medium containing 10 μM FL-AS1411 added and incubated for 2 h at 37° C. After incubation, cells were harvested and analyzed by flow cytometry. Mean fluorescence was normalized to “not transfected” control (Panel A) or to no pre-treatment control (Panel B). All experiments have been repeated at least three times. Data are the mean of three independent samples; bars, SE; *(p<0.05).
FIG. 11 is a graph showing a comparison between AS1411 and tAS1411 in the ability to stimulate macropinocytosis. DU145 cells were plated 18 hr before treatment with different concentrations (0, 5, 10, or 15 μM) of AS1411, tAS1411 or tCRO in complete DMEM medium at 37° C. for 48 h. After treatment, cell medium was changed for fresh complete medium containing 0.2 mg/ml dextran-10K labeled with Alexa Fluor 488, and cells were incubated for 30 min at 37° C. After incubation, cells were incubated on ice with […] PI in PBS, harvested, fixed and immediately analyzed by flow cytometry.
(§1) To analyze uptake of the oligodeoxynucleotides or dextran-10K (macropinocytic marker) by flow cytometry, 2×10^5 cells in fresh supplemented culture medium (2.5 ml) were plated into 6-well plates for 18 h. After complete adhesion, the cells were incubated with 5′-FAM tagged oligodeoxynucleotides or Alexa Fluor 488 tagged dextran-10K and incubated as indicated in the Description of the Drawings. Cells were washed once with ice-cold PBS, incubated with 1 μg/ml 7-amino-actinomycin D (7-AAD) for 5 min on ice or 1 μg/ml propidium iodide (PI), and washed twice with ice-cold PBS. Cells were then treated with 0.01% trypsin/0.5 mM EDTA (300 μl) for 3 min prior addition 3 ml supplemented culture medium. The cells were then centrifuged and resuspended in 0.5 ml of 1% paraformaldehyde for analysis by flow cytometry using a FACScalibur cytometer (BD Biosciences, Mountain View, Calif.).
AS1411 causes a change in cancer cell morphology that is characterized by vacuolization, irregular nuclei, and swollen cells (Xu et al., 2001, J. Biol. Chem., 276:43221-30). […]

[2] = system: U937 leukemia cells; test: Cell death mechanism (DNA laddering, immunoblotting, electron microscopy); format: cell-based
Experimental: (A) Trypan blue staining of U937 leukemia cells showing percentage of dead cells (trypan blue positive) over time. (B) U937 cells were untreated (Un) or treated with 1 μM AS1411 (1411) or control oligonucleotide (Ctrl) for 72 h. DNA was extracted, electrophoresed on an agarose gel and stained with ethidium bromide to probe DNA laddering. As a positive control, […] were treated with UV irradiation to induce apoptosis as previously described. […] (D) U937 cells treated as described for panel B, followed by protein extraction and immunoblotting (IB) to detect PARP cleavage and Caspase-3 activation. (E) DU145 prostate cancer cells were incubated with 10 μM of AS1411 for 24 h, or irradiated with UV (300 J/m^2 with UV Stratalinker 2400, Strategene), then cultured in fresh medium for 6 h. Assessment of cell death was carried out by flow cytometry to detect Annexin V-FITC binding and PI staining.

[3] = system: DU145 cells; format: cell-based
Experimental: DU145 cells were incubated for 4 days in the presence of 10 μM AS1411 with 3-MA at the concentration indicated, and cell number was assessed by MTT assay.
It also appears unlikely that AS1411-induced cell death is due to autophagy. […] Further evidence that supports the idea that AS1411 can induce methuosis comes from the similarity between the appearance of cells treated with AS1411 and published images of glioblastoma cells undergoing Ras-induced methuosis.

[4] = system: DU145 cells; test: Uptake of fluorophore-labeled oligonucleotides by flow cytometry; format: cell-based
Experimental: (§2) FIG. 1 are graphs showing that AS1411 cell internalization is an active process. Cells were plated 18 h before uptake analysis. After incubation as described, cells were washed with ice-cold PBS, incubated with 1 μg/ml 7-AAD, harvested and resuspended in 1% paraformaldehyde containing 2 μg/ml actinomycin D, then analyzed by flow cytometry. (Panel A) DU145 cells were incubated at 37° C. with fresh complete DMEM medium containing 10 μM FL-AS1411 (black line) or 10 μM FL-CRO (gray line) for the time indicated. (Panel B) DU145 cells were incubated for 2 h at 37° C. in complete or serum-free DMEM medium containing 10 μM FL-AS1411, or 10 μM FL-CRO, or no oligonucleotide. (Panel C) Various cell lines were incubated with 10 μM FL-AS1411 (black outline histogram), 10 μM FL-CRO (gray outline histogram) or without DNA (solid gray histogram) at 37° C. or 4° C. for 2 h. All experiments were repeated at least three times. Data are mean of three independent samples; bars, SE; *(p<0.05).
(§3) FIG. 2 are graphs showing that AS1411 is internalized by different endocytic mechanisms in DU145 cancer cells and in non-malignant Hs27 cells. DU145 or Hs27 cells were plated 18 h before uptake analysis. Cells were pre-treated as described with inhibitor (gray histogram) or the corresponding vehicle control (black histogram) before addition of 10 μM FL-AS1411 and incubation at 37° C. for 2 h. After incubation, cells were harvested and analyzed by flow cytometry. Pre-treatment conditions were at 37° C. with: (Panel A) 5 μM Cytochalasin D for 30 min; (Panel B) 80 μM Dynasore for 30 min; or (Panel C) 3 mM amiloride for 1 h. All experiments were repeated at least three times and representative data are shown. Solid gray histograms represent background autofluorescence of unstained cells.
DU145 cells were transfected for 48 h without siRNA (mock, M), or with 30 nM of one of three different nucleolin siRNAs (NCL1, NCL2, NCL3) or a control siRNA (scramble, S), or contransfected with 10 nM of each nucleolin siRNAs (mix). (Panel A) Cells were lysed and total cell lyses were analyzed by Western blotting using the antibodies shown. (Panel B) Cell-surface proteins from intact transfected DU145 cells were labeled covalently with membrane-impermeable biotinylating agent. Cells were lysed, then biotinylated plasma membrane proteins were captured with streptavidin-agarose beads and analyzed by blotting with anti-nucleolin antibody (upper panel). After stripping, the membrane was reprobed with antibodies for a plasma membrane marker (anti-pan Cadherin) and a nuclear marker (anti-histone 3) to confirm the fractionation. Total lysate (Lys) was used as control. (Panel C) The medium of transfected cells was replaced by fresh complete DMEM medium containing no oligonucleotide (gray dashed histogram) or 10 μM FL-CRO (gray solid line histogram) or 10 μM FL-AS1411 (black solid line histogram) and incubated at 37° C. for 2 h. After incubation, cells were harvested and analyzed by flow cytometry.
DU145 cells were plated 18 hr before uptake analysis. Cell medium was changed with fresh complete DMEM medium containing different concentrations of FL-AS1411 (black line) or FL-CRO (gray line), and incubated at 37° C. for 2 hrs. After incubation, cells were harvested and analyzed by flow cytometry.
FIG. 9 are graphs showing the effects of inhibitors on various endocytic pathways. DU145 or Hs27 cells were plated 18 hr before uptake analysis. (Panel A) DU145 cells were pre-treated with dynamin inhibitor, […] Dynasore (black histogram) or DMSO (gray histogram) for 30 min at 37° C. After pre-treatment, cells were treated with […] transferrin conjugated with Alexa Fluor 488 for 30 min at 37° C. (Panel B) DU145 and Hs27 cells were pre-treated with 3 mM amiloride (black histogram) or vehicle (serum-free medium, gray histogram) for 1 h at 37° C. After pre-treatment, FL-CRO was added at a concentration of 10 μM and incubated at 37° C. for 2 h. After incubation, cells were harvested and analyzed by FACS. […]

[5] = system: Hs27 cells; test: as above; format: cell-based, human
Experimental: as §2, §3
FIG. 9 are graphs showing the effects of inhibitors on various endocytic pathways. DU145 or Hs27 cells were plated 18 hr before uptake analysis. (Panel A) DU145 cells were pre-treated with dynamin inhibitor, […] Dynasore (black histogram) or DMSO (gray histogram) for 30 min at 37° C. After pre-treatment, cells were treated with […] transferrin conjugated with Alexa Fluor 488 for 30 min at 37° C. (Panel B) DU145 and Hs27 cells were pre-treated with 3 mM amiloride (black histogram) or vehicle (serum-free medium, gray histogram) for 1 h at 37° C. After pre-treatment, FL-CRO was added at a concentration of 10 μM and incubated at 37° C. for 2 h. After incubation, cells were harvested and analyzed by FACS. Gray solid histogram represents unstained cells.
To analyze uptake of the oligodeoxynucleotides or dextran-10K (macropinocytic marker) by flow cytometry, 2×10^5 cells in fresh supplemented culture medium (2.5 ml) were plated into 6-well plates for 18 h. […]

[6] = system: DU145; test: Uptake of AS1411 by macropinocytosis (MP); format: cell-based; conditions: 3 mM amiloride for 1 h, then 10 μM FL-AS1411 2 h
Experimental: as §3
as §1, with “Cells were then treated with 0.01% trypsin/0.5 mM EDTA (300 μl) for 3 min prior addition 3 ml supplemented culture medium. The cells were then centrifuged and resuspended in 0.5 ml of 1% paraformaldehyde for analysis by flow cytometry using a FACScalibur cytometer (BD Biosciences, Mountain View, Calif.).” left out

[7] = system: MCF7; test: Uptake of AS1411 by macropinocytosis (MP); format: cell-based; conditions: amiloride treatment, MCF7 cells
From the text: (§4) There was little effect of amiloride treatment on uptake of FL-CRO in either DU145 cancer cells or non-malignant Hs27 cells (FIG. 9B). […] These studies also confirmed the previous results that there was higher overall uptake of FL-AS1411 in Hs27 cells than in DU145 cells.
(§5) It has recently been discovered that AS1411 can stimulate macropinocytosis (MP) in cancer cells and this finding was verified by several different methods and in multiple cancer cell lines (Table 1).

[8] = system: MDA-MB-231; test: Uptake of AS1411 by macropinocytosis (MP); format: cell-based; conditions: amiloride treatment, MDA-MB-231 cells
From the text: as §4, §5

[9] = 5 μM cytochalasin D for 30 min, then 10 μM FL-AS1411 2 h
[10] = 3 mM amiloride for 1 h, then 10 μM FL-CRO 2 h

5′-d(TTTCCTCCTCCTCCTTCTCCTCCTCCTCC) (DNA TTTCCTCCTCCTCCTTCTCCTCCTCCTCC; unmodified DNA) [tCRO, reference compound]
uptake of the macropinocytic marker, dextran, after treatment [1]: No changes in dextran uptake

NC(=O)c1cccc(N)c1 [3-aminobenzamide]
effect of pre-incubation on AS1411-induced cell death [2]: did not inhibit AS1411-induced cell death

Cn1cnc(N)c2ncnc1-2 [3-methyladenine]
toxicity of the inhibitor alone [3]: some toxicity by itself | effect on AS1411 activity ([3]; 4 days, 10 μM AS1411): did not inhibit AS1411 activity

C=C1[C@@H](C)[C@H]2[C@H](Cc3ccccc3)NC(=O)[C@]23[C@H](OC(C)=O)/C=C/[C@@](C)(O)C(=O)[C@@H](C)C/C=C/[C@H]3[C@@H]1O [Cytocholasin D, Cytochalasin D, reference compound]
effect of pre-treatment on FL-AS1411 uptake [4, 9]: decrease in FL-AS1411 uptake | effect of pre-treatment on FL-AS1411 uptake [5, 9]: decrease in FL-AS1411 uptake

N=C(N)NC(=O)c1nc(Cl)c(N)nc1N [amiloride, reference compound]
effect of pre-treatment on FL-AS1411 uptake [6]: reduction in FL-AS1411 uptake | effect of treatment on AS1411 uptake [7]: affected the AS1411 uptake | effect of treatment on AS1411 uptake [8]: affected the AS1411 uptake | effect of treatment on uptake of FL-CRO [4, 10]: little effect | effect of treatment on uptake of FL-CRO [5, 10]: little effect

COC(=O)CC[C@H](NC(=O)[C@H](CC(=O)OC)NC(=O)OCc1ccccc1)C(=O)N[C@H](C(=O)N[C@@H](CC(=O)OC)C(=O)CF)C(C)C [zDEVD-fmk]
effect of pre-incubation on AS1411-induced cell death [2]: did not inhibit AS1411-induced cell death

CC[C@H](C)[C@H](NC(=O)OCc1ccccc1)C(=O)N[C@@H](CCC(=O)OC)C(=O)N[C@H](C(=O)N[C@@H](CC(=O)OC)C(=O)CF)[C@@H](C)O [zIETD-fmk] (Cbz-IE(OMe)TD(OMe)-CH2F)
effect of pre-incubation on AS1411-induced cell death [2]: did not inhibit AS1411-induced cell death

COC(=O)CC[C@H](NC(=O)[C@H](CC(C)C)NC(=O)OCc1ccccc1)C(=O)N[C@@H](Cc1cnc[nH]1)C(=O)N[C@@H](CC(=O)OC)C(=O)CF [zLEHD-fmk] (Cbz-LE(OMe)HD(OMe)-CH2F)
effect of pre-incubation on AS1411-induced cell death [2]: did not inhibit AS1411-induced cell death

COC(=O)C[C@H](NC(=O)[C@H](C)NC(=O)[C@@H](NC(=O)OCc1ccccc1)C(C)C)C(=O)CF [zVAD-fmk] (Cbz-Val-Ala-Asp(OMe)-CH2F)
effect of pre-incubation on AS1411-induced cell death [2]: did not inhibit AS1411-induced cell death
